Here are results for 10 compounds from PubChem BioAssay (NCI).

The GI50 is the concentration giving 50% growth inhibition. Usually TGI stands for the concentration at which net growth stops. Read a high TGI as lower sensitivity of the cells.

Molecules are shown by their SMILES.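 Following 48 hours of exposure in 96-well plates, responses at five concentrations were used to interpolate endpoints linearly. GI50 marks 50% less growth. TGI is the concentration that stops growth completely.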

Holding throughout (test): DTP human tumour cell line panel, 48 h
For assay [1], the system named is 786-0 renal.
Assay [2] relates to HCT-116 colon.
Assay [3] deals with RXF 393 renal.
Assay [4] deals with OVCAR-4 ovarian.
Assay [5] concerns HOP-62 NSCLC.
Assay [6] concerns A549 NSCLC.
For assay [7], the system named is EKVX NSCLC.
The test system of assay [8] is TK-10 renal.

As for `O=S(=O)(NCCNc1cc(-c2cn(-c3ccccc3)nc2-c2cccc(O)c2)ccn1)c1ccc(Cl)cc1`, the GI50 in assay [1] was 2.54 µM; in assay [2], 2.69 µM; in assay [3], 2.86 µM; in assay [4], 4.37 µM; in assay [5] it was 2.87 µM; in assay [6], 3.89 µM. In addition, the GI50 in assay [7] is 2.87 µM; in assay [8] it was 4.25 µM. Also, the TGI in assay [1] was 9.78 µM; in assay [2], 11.4 µM; in assay [3] it was 10.1 µM; in assay [4], > 100 µM; in assay [5], 13.7 µM; in assay [6], 18.8 µM. The TGI in assay [7] was 31.2 µM; in assay [8], 23.1 µM.
Consider `O=S(=O)(O)/C(=C\c1ccccc1)c1ccccc1` (tested in a mixture with another compound), for which the TGI in assay [1], in assay [2], in assay [3], in assay [4], in assay [5] and in assay [6] was > 100 µM each time. Further, the TGI in assay [7] and in assay [8] was > 100 µM in each case.
Turning to `C/C1=C\C/C=C(\C)[C@H]2CC(CC/C(C)=C/CC1)[C@](C)(C=O)O2`, the GI50 in assay [1] was > 100 µM; in assay [2], 6.03 µM; in assay [3], > 100 µM; in assay [4], > 100 µM; in assay [5], 40.6 µM; in assay [6], > 100 µM. The GI50 in assay [7] and in assay [8] was > 100 µM in each case. Besides, the concentration for total growth inhibition (TGI) in assay [1], in assay [2], in assay [3], in assay [4], in assay [5] and in assay [6] was > 100 µM throughout. Further, the TGI in assay [7] and in assay [8] was > 100 µM each time.
With `C=C1CC2(CCCC3(CC(=C)C(=O)O3)C2(C)C)OC1=O` (stereo unspecified), the TGI in assay [1] came out at 11.4 µM; in assay [2], 5.22 µM; in assay [3], 31 µM; in assay [4], 20.2 µM; in assay [5], 30.8 µM; in assay [6] it was 28.9 µM. For the same compound, the values for the TGI in assay [7] and in assay [8] were 18.4 µM and 6.31 µM, respectively.
As to `COc1ccc(CC(NC(=O)[C@H](C)NC(=O)CN2CCOCC2)C(=O)N[C@@H](Cc2ccccc2)C(=O)[C@@]2(C)CO2)cc1` (stereo partly specified), the GI50 in assay [1] was 0.364 µM; in assay [2] it was 0.181 µM; in assay [3], 0.237 µM; in assay [4], 0.228 µM; in assay [5], 0.191 µM; in assay [6], 0.461 µM. Further, the GI50 in assay [7] is 0.469 µM; in assay [8], 0.47 µM. For the same compound, the TGI in assay [1] is 1.76 µM; in assay [2] it was 0.49 µM; in assay [3] it was 0.658 µM; in assay [4], 0.856 µM; in assay [5] it was 0.453 µM; in assay [6], > 22.9 µM. The TGI in assay [7] is > 100 µM; in assay [8], 4.93 µM.
In the case of `COc1cc(NCc2ccccc2O)c2ncccc2c1`, the GI50 in assay [1] was 29.8 µM; in assay [2], 16.6 µM; in assay [3], 18.5 µM; in assay [4] it was 13.7 µM; in assay [5], 19.7 µM; in assay [6] it was 49.1 µM. The GI50 was 19 µM in assay [7] and 26.5 µM in assay [8]. Further, the TGI was > 100 µM in assay [1]; 63.4 µM in assay [2]; 68.8 µM in assay [3]; > 100 µM in assay [4]; > 100 µM in assay [5]; > 100 µM in assay [6]. In addition, the TGI in assay [7] is 80.8 µM; in assay [8], > 100 µM.
In the case of `O=C(O)c1cc(Cc2ccc(O)c(C(=O)O)c2)ccc1O` (tested in a mixture with another compound), the GI50 in assay [1] is 9.64 µM; in assay [2], 3.67 µM; in assay [3], 0.25 µM; in assay [4], 6.08 µM; in assay [5], 10.9 µM; in assay [6], 9.82 µM. In addition, the figures for the GI50 in assay [7] and in assay [8] were 4.82 µM and 6.17 µM, respectively. Also, the TGI in assay [1] worked out at 25.2 µM; in assay [2], 14.2 µM; in assay [3], 1.37 µM; in assay [4], 29.2 µM; in assay [5], 26.6 µM; in assay [6] it was 28 µM. Besides, the results for the TGI in assay [7] and in assay [8] were 18 µM and 20.7 µM, respectively.
In the case of `CC(=O)OC1CCC2(C)C(=CCC3C4CCC5(OC6CC(C)CN(C(C)=O)C6C5C)C(C)=C4C(=O)C32)C1` (stereo unspecified), the TGI was found to be 72.6 µM in assay [1]; 36.7 µM in assay [2]; 32.2 µM in assay [3]; 61.4 µM in assay [4]; 46.4 µM in assay [5]; 47.7 µM in assay [6]. Besides, the values for the TGI in assay [7] and in assay [8] were 27.5 µM and 56.7 µM, respectively.
With `Cc1cc(C)n(C(=O)c2nn(-c3ccc(Cl)cc3)cc2O)n1`, the GI50 in assay [1] is 9.64 µM; in assay [2], 3.42 µM; in assay [3], 4.58 µM; in assay [4], 9.19 µM; in assay [5], 5.21 µM; in assay [6] it was 3.72 µM. The GI50 was 4.87 µM in assay [7] and 4.71 µM in assay [8]. Further, the TGI is > 100 µM in assay [1]; 48.2 µM in assay [2]; > 100 µM in assay [3]; > 100 µM in assay [4]; 79.4 µM in assay [5]; > 100 µM in assay [6]. In addition, the TGI in assay [7] and in assay [8] was > 100 µM in each case.
In the case of `COc1ccc(/C=C/C(=O)c2cc3c(N)c(C(=O)Nc4ccccc4C)sc3nc2C)cc1`, the GI50 in assay [1] was 0.489 µM; in assay [2], 0.53 µM; in assay [3] it was 0.14 µM; in assay [4] it was 1.42 µM; in assay [5], 0.779 µM; in assay [6] it was 0.905 µM. Moreover, the GI50 in assay [7] was 1.88 µM; in assay [8], 2.48 µM. The TGI in assay [1] is > 50 µM; in assay [2] it was > 50 µM; in assay [3], 0.423 µM; in assay [4], > 50 µM; in assay [5], > 50 µM; in assay [6], > 50 µM. Besides, the TGI in assay [7] and in assay [8] was > 50 µM in each case.
